Data set [1] has as its target T1, human alpha 1a adrenergic receptor (Homo sapiens, UniProt P35348).
T1 sequence (P35348 1-466): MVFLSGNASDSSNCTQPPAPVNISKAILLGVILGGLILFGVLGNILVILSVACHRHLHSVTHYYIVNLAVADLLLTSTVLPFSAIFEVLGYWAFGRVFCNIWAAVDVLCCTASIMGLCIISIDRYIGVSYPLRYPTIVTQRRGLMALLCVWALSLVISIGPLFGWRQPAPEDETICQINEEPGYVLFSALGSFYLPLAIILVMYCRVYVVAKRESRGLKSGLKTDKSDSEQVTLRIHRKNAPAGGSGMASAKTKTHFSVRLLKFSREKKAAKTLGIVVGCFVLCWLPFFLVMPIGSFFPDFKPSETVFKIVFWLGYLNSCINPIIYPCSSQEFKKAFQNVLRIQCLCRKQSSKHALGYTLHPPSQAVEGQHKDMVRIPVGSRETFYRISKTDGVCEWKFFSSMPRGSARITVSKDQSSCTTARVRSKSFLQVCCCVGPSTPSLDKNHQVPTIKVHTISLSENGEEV
Briefly: Screening assay: alpha 1a adrenergic receptor binding ([125I]-HEAT competition). The note with it: membranes from stably transfected human alpha 1a cell line (ATCC CRL 11140), 100 pM [125I]-HEAT. As for the experimental part: Screening Assay: Alpha 1a Adrenergic Receptor Binding
Membranes prepared from the stably transfected human alpha 1a cell line (ATCC CRL 11140) were used to identify compounds that bind to the human alpha 1a adrenergic receptor. These competition binding reactions (total volume=200 μl) contained 50 mM Tris-HCl pH. 7.4, 5 mM EDTA, 150 mM NaCl, 100 pM [^125I]-HEAT, membranes prepared from the alpha 1a cell line and increasing amounts of unlabeled ligand. Reactions were incubated at room temperature for one hour with shaking. Reactions were filtered onto Whatman GF/C glass fiber filters with a Inotec 96 well cell harvester. Filters were washed three times with ice cold buffer and bound radioactivity was determined (Ki).

Structures can show the parent of a compound that is named as a salt.

The term Ki denotes the dissociation constant of the complex between target and ligand, obtained from inhibition or displacement. Higher therefore signals a looser hold on the target. For the compound `Cc1ccc(C2(c3ccc(C)cc3)NC(=O)N(CCCN3CCC4(CC3)c3ccccc3-c3ccc(Br)cc34)C2=O)cc1` [Example 10, 1′-[3-(5,5-Bis-p-tolyl-2,4-dioxoimidazolidin-3-yl)propyl]-2-bromospirofluorene-9,4′-piperidine], in data set [1], the Ki was below 20 nM.
Broadly, the melting point is the temperature of the solid-liquid transition. Regarding `COCC1=C(C(=O)OC)[C@H](c2ccc(F)c(F)c2)N(C(=O)NCCCN2CCC3(CC2)c2ccccc2-c2cccnc23)C(=O)N1` (as salt: hydrochloride) [Example 53, 1,2,3,6-tetrahydro-1-[3-((spiro(9H-indeno[2,1-b]pyridine)-9,4′-piperidin)-1′-yl)propylaminocarbonyl]-5-methoxycarbonyl-4-methoxymethyl-6(S)-(3,4-difluorophenyl)-2-oxopyrimidine], the melting point was in the range of 201 to 209 °C.
For `COCC1=C(C(=O)OC)[C@H](c2ccc(F)c(F)c2)N(C(=O)NCCCN2CCC3(CC2)c2ccccc2-c2ccc(F)cc23)C(=O)N1` [Example 14, 1,2,3,6-tetrahydro-1-[((2-fluorospirofluorene-9,4′-piperidin)-1′-yl)propyl]aminocarbonyl-5-methoxycarbonyl-4-methoxymethyl-6(S)-(3,4-difluorophenyl)-2-oxopyrimidine], in data set [1], the inhibition constant (Ki) was below 20 nM.
`O=C(NCCCN1CCC2(CC1)c1ccccc1[S+]([O-])c1ccccc12)N1C(=O)OC[C@@H]1c1ccc(F)c(F)c1` (as salt: HCl) [Example 26, 1′-{3-[(4S)-(3,4-Difluorophenyl)-2-oxooxazolidin-3-carbonylamino]propyl}-(10-oxo-spirothioxanthene-9,4′-piperidine)]: the melting point lay in the range of 184 to 193 °C.
`COCC1=C(C(=O)OC)[C@H](c2ccc(F)c(F)c2)N(C(=O)NCCCN2CCC3(CC2)c2ccccc2[S+]([O-])c2ccccc23)C(=O)N1` (as salt: HCl) [Example 27, 1,2,3,6-tetrahydro-1-[(10-oxo-spirothioxanthene-9,4′-piperidin-1′-yl)propyl]aminocarbonyl-5-methoxycarbonyl-4-methoxymethyl-6(S)-(3,4-difluorophenyl)-2-oxopyrimidine] gave a melting point of 185 to 196 °C.
`O=C(NCCCN1CCC2(CC1)c1ccccc1Sc1ccccc12)N1C(=O)OC[C@@H]1c1ccc(F)c(F)c1` (as salt: HCl) displayed a melting point of 140 to 176 °C.
`O=C(NCCCN1CCC2(CC1)c1ccccc1-c1ccccc12)N1C(=O)OC[C@@H]1c1ccc(F)c(F)c1` [Example 6, 1′-{3-[(4S)-(3,4-Difluorophenyl)-2-oxooxazolidin-3-carbonylamino]propyl}spirofluorene-9,4′-piperidine]: the inhibition constant Ki in data set [1] was below 20 nM.
Still for that read-out and setting: to `O=C(NCCCN1CCC2(CC1)c1ccccc1CCc1ccccc12)N1C(=O)OC[C@@H]1c1ccc(F)c(F)c1` [Example 57, 1′-{3-[4(S)-(3,4-difluorophenyl)-2-oxooxazolidin-3-carbonylamino]-propyl}-(10,11-dihydrospiro-5H-dibenzo[a,d]cycloheptene)-5,4′-piperidine] belongs below 20 nM; to `O=C(NCCCN1CCC2(CC1)c1ccccc1[S+]([O-])c1ccccc12)N1C(=O)OC[C@@H]1c1ccc(F)c(F)c1` [Example 26, 1′-{3-[(4S)-(3,4-Difluorophenyl)-2-oxooxazolidin-3-carbonylamino]propyl}-(10-oxo-spirothioxanthene-9,4′-piperidine)], below 20 nM.
In data set [1], `COCC1=C(C(=O)OC)[C@H](c2ccc(F)c(F)c2)N(C(=O)NCCCN2CCC3(CC2)c2ccccc2S(=O)(=O)c2ccccc23)C(=O)N1` [Example 33, 1,2,3,6-tetrahydro-1-[(10,10-dioxo-spirothioxanthene-9,4′-piperidin-1′-yl)propyl]aminocarbonyl-5-methoxycarbonyl-4-methoxymethyl-6(S)-(3,4-difluorophenyl)-2-oxopyrimidine] showed a Ki below 20 nM.
The same measure, in the same setting: to `O=C(NCCCN1CCC2(CC1)c1cc(Cl)ccc1Oc1ccc(Cl)cc12)N1C(=O)OC[C@@H]1c1ccc(F)c(F)c1` [Example 42, 1′-{3-[(4S)-(3,4-Difluorophenyl)-2-oxooxazolidin-3-carbonylamino]propyl}-2,7-dichlorospiroxanthene-9,4′-piperidine] belongs below 20 nM; to `O=C(NCCCN1CCC2(CC1)c1ccccc1S(=O)(=O)c1ccccc12)N1C(=O)OC[C@@H]1c1ccc(F)c(F)c1` [Example 32, 1′-{3-[(4S)-(3,4-Difluorophenyl)-2-oxooxazolidin-3-carbonylamino]propyl}-(10,10-dioxo-spirothioxanthene-9,4′-piperidine)], below 20 nM.
The same measure, in the same setting: the figure for `O=C(NCCCN1CCC2(CC1)c1ccccc1Oc1ccc(Cl)cc12)N1C(=O)OC[C@@H]1c1ccc(F)c(F)c1` [Example 40, 1′-{3-[(4S)-(3,4-Difluorophenyl)-2-oxooxazolidin-3-carbonylamino]propyl}-2-chlorospiroxanthene-9,4′-piperidine] is below 20 nM; for `COCC1=C(C(=O)OC)[C@H](c2ccc(F)c(F)c2)N(C(=O)NCCCN2CCC3(CC2)c2ccccc2[S+]([O-])c2ccccc23)C(=O)N1` [Example 27, 1,2,3,6-tetrahydro-1-[(10-oxo-spirothioxanthene-9,4′-piperidin-1′-yl)propyl]aminocarbonyl-5-methoxycarbonyl-4-methoxymethyl-6(S)-(3,4-difluorophenyl)-2-oxopyrimidine] it is below 20 nM; for `Cc1ccc(C2(c3ccc(C)cc3)NC(=O)N(CCCN3CCC4(CC3)c3ccccc3-c3ccccc34)C2=O)cc1` [Example 4, 1′-[3-(5,5-Bis-p-tolyl-2,4-dioxoimidazolidin-3-yl)propyl]spirofluorene-9,4′-piperidine] it is below 20 nM.
On to `O=C1OC[C@H](c2ccc(F)c(F)c2)N1CCCCCN1CCC2(CC1)c1ccccc1CCc1ccccc12` [Example 58, 1′-{5-[4(S)-(3,4-difluorophenyl)-2-oxooxazolidin-3-yl]-pentyl}-(10,11-dihydrospiro-5H-dibenzo[a,d]cycloheptene)-5,4′-piperidine], for which, in data set [1], the Ki is below 20 nM.
For the compound `COCC1=C(C(=O)OC)[C@H](c2ccc(F)c(F)c2)N(C(=O)NCCCN2CCC3(CC2)c2ccccc2-c2ncccc23)C(=O)N1` [Example 49], in data set [1], the Ki was below 20 nM.
Regarding `O=C(NCCCN1CCC2(CC1)c1cc(F)ccc1Oc1ccc(F)cc12)N1C(=O)OC[C@@H]1c1ccc(F)c(F)c1` [Example 44, 1′-{3-[(4S)-(3,4-Difluorophenyl)-2-oxooxazolidin-3-carbonylamino]propyl}-2,7-difluorospiroxanthene-9,4′-piperidine], the Ki in data set [1] was below 20 nM.
The same measure, in the same setting: to `COCC1=C(C(=O)OC)[C@H](c2ccc(F)c(F)c2)N(C(=O)NCCCN2CCC3(CC2)c2ccccc2-c2cccnc23)C(=O)N1` [Example 53, 1,2,3,6-tetrahydro-1-[3-((spiro(9H-indeno[2,1-b]pyridine)-9,4′-piperidin)-1′-yl)propylaminocarbonyl]-5-methoxycarbonyl-4-methoxymethyl-6(S)-(3,4-difluorophenyl)-2-oxopyrimidine] belongs below 20 nM.
Still for that read-out and setting: to `COCC1=C(C(=O)OC)[C@H](c2ccc(F)c(F)c2)N(C(=O)NCCCN2CCC3(CC2)c2ccccc2-c2ccccc23)C(=O)N1` [Example 8, 1,2,3,6-tetrahydro-1-[(spirofluorene-9,4′-piperidin-1′-yl)propyl]aminocarbonyl-5-methoxycarbonyl-4-methoxymethyl-6(S)-(3,4-difluorophenyl)-2-oxopyrimidine] belongs below 20 nM.
